Measured values reported in ChEMBL document CHEMBL3046240, “A useful new insecticide bioassay using first-instar larvae of a net-spinning caddisfly, Cheumatopsyche brevilineata (Trichoptera: Hydropsychidae)” (J Pestic Sci, 2009).
Converted amounts (≈) assume the structure as drawn.

Legend:
[1] = Octanol-water partition coefficient, log KOW of the compound
[2] = tested on: Cheumatopsyche; experiment: Insecticidal activity against first-instar larvae of Cheumatopsyche brevilineata after 48 hr; type: functional, organism-based
[3] = tested on: Daphnia magna; experiment: Insecticidal activity against Daphnia magna after 48 hr; type: functional, organism-based
[4] = tested on: Daphnia pulex; experiment: Insecticidal activity against Daphnia pulex after 48 hr; type: functional, organism-based

CNC(=O)Oc1cc(C)cc(C)c1
logP [1]: 2.3
EC50 [2]: 58.9 ng/mL (≈ 0.329 µM)
EC50 [3]: 30 ng/mL (≈ 0.167 µM)

CCN(Cc1ccc(Cl)nc1)/C(=C/[N+](=O)[O-])NC
EC50 [2]: 45 ng/mL (≈ 0.166 µM)
EC50 [3]: > 100000 ng/mL

C/C(=N\C#N)N(C)Cc1ccc(Cl)nc1
logP [1]: 0.8
EC50 [2]: 3.35 ng/mL (≈ 0.015 µM)
EC50 [3]: 50000 ng/mL (≈ 225 µM)

CCOC(=O)CCN(SN(C)C(=O)Oc1cccc2c1OC(C)(C)C2)C(C)C [BENFURACARB]
logP [1]: 4.22
EC50 [2]: 6.66 ng/mL (≈ 0.0162 µM)
EC50 [3]: 9.9 ng/mL (≈ 0.0241 µM)

CN(C)C(CSS(=O)(=O)c1ccccc1)CSS(=O)(=O)c1ccccc1 [BENSULTAP]
logP [1]: 2.28
EC50 [2]: 148 ng/mL (≈ 0.343 µM)
LC50 ([3]; Daphnia magna, 48 h): 200 ng/mL (≈ 0.463 µM)

CC(C)N1C(=O)N(c2ccccc2)CS/C1=N\C(C)(C)C [BUPROFEZIN]
logP [1]: 4.3
EC50 [2]: 181 ng/mL (≈ 0.593 µM)
EC50 [3]: > 420 ng/mL

CNC(=O)Oc1cccc2ccccc12 [CARBARIL]
logP [1]: 1.85
EC50 [2]: 21.4 ng/mL (≈ 0.106 µM)
EC50 [3]: 5.6 ng/mL (≈ 0.0278 µM)

CCCCN(CCCC)SN(C)C(=O)Oc1cccc2c1OC(C)(C)C2 [CARBOSULFAN]
logP [1]: 5.4
EC50 [2]: 1.49 ng/mL (≈ 0.00392 µM)
EC50 [4]: 1.03 ng/mL (≈ 0.00271 µM)

CN(C)C(CSC(N)=O)CSC(N)=O.Cl [CARTAP HYDROCHLORIDE]
EC50 [2]: 3.7 ng/mL
EC50 [3]: 65 ng/mL

CN/C(=N\[N+](=O)[O-])NCc1cnc(Cl)s1 [CLOTHIANIDINE]
EC50 [2]: 4.44 ng/mL (≈ 0.0178 µM)
EC50 [3]: > 119000 ng/mL

COP(=O)(OC)OC=C(Cl)Cl [DICHLORVOS]
logP [1]: 1.9
EC50 [2]: 1.17 ng/mL (≈ 0.00529 µM)
EC50 [3]: 0.2 ng/mL (≈ 0.000905 µM)

CCOP(=S)(OCC)Oc1cc(C)nc(C(C)C)n1 [DIMPYLATE]
EC50 [2]: 1.77 ng/mL (≈ 0.00582 µM)
EC50 [3]: 0.87 ng/mL (≈ 0.00286 µM)

CN/C(=N/CC1CCOC1)N[N+](=O)[O-] (stereo unspecified) [DINOTEFURAN]
log KOW [1]: -0.644
EC50 [2]: 10.4 ng/mL (≈ 0.0514 µM)
EC50 [3]: > 968300 ng/mL

CCOc1ccc(C(C)(C)COCc2cccc(Oc3ccccc3)c2)cc1 [ETOFENPROX]
EC50 [2]: 0.116 ng/mL (≈ 0.000308 µM)
EC50 [3]: 0.57 ng/mL (≈ 0.00151 µM)

COP(=S)(OC)Oc1ccc([N+](=O)[O-])c(C)c1 [FENITROTHION]
logP [1]: 3.43
EC50 [2]: 7.78 ng/mL (≈ 0.0281 µM)
EC50 [3]: 11 ng/mL (≈ 0.0397 µM)

CCC(C)c1ccccc1OC(=O)NC (stereo unspecified) [FENOBUCARB]
logP [1]: 2.79
EC50 [2]: 9.48 ng/mL (≈ 0.0457 µM)
EC50 [4]: 10.3 ng/mL (≈ 0.0497 µM)

COP(=S)(OC)Oc1ccc(SC)c(C)c1 [FENTHION]
EC50 [2]: 2.14 ng/mL (≈ 0.00769 µM)
EC50 [3]: 5.2 ng/mL (≈ 0.0187 µM)

N#Cc1nn(-c2c(Cl)cc(C(F)(F)F)cc2Cl)c(N)c1[S+]([O-])C(F)(F)F (stereo unspecified) [FIPRONIL]
EC50 [2]: 0.153 ng/mL (≈ 0.00035 µM)
EC50 [3]: 190 ng/mL (≈ 0.435 µM)

O=[N+]([O-])/N=C1\NCCN1Cc1ccc(Cl)nc1 [IMIDACLOPRID]
EC50 [2]: 4.22 ng/mL (≈ 0.0165 µM)
EC50 [3]: 85200 ng/mL (≈ 333 µM)

CCOC(=O)CC(SP(=S)(OC)OC)C(=O)OCC (stereo unspecified) [MALATHION]
logP [1]: 2.75
EC50 [2]: 1.81 ng/mL (≈ 0.00548 µM)
EC50 [3]: 1 ng/mL (≈ 0.00303 µM)

CNC(=O)ON=C(C)SC [METHOMYL]
logP [1]: 0.093
EC50 [2]: 68.1 ng/mL (≈ 0.42 µM)
EC50 [3]: 8.8 ng/mL (≈ 0.0542 µM)

CC1(C)C(C=C(Cl)Cl)C1C(=O)OCc1cccc(Oc2ccccc2)c1 (stereo unspecified) [PERMETHRIN]
log KOW [1]: 6.1
EC50 [2]: 0.205 ng/mL (≈ 0.000524 µM)
EC50 [3]: 0.6 ng/mL (≈ 0.00153 µM)

CCOC(=O)C(SP(=S)(OC)OC)c1ccccc1 (stereo unspecified) [PHENTHOATE]
EC50 [2]: 0.88 ng/mL (≈ 0.00275 µM)
EC50 [3]: 0.34 ng/mL (≈ 0.00106 µM)

CC1=NNC(=O)N(/N=C/c2cccnc2)C1 [PYMETROZINE]
EC50 [2]: 112000 ng/mL (≈ 516 µM)
EC50 [3]: 87000 ng/mL (≈ 400 µM)

CCOc1ccc([Si](C)(C)CCCc2ccc(F)c(Oc3ccccc3)c2)cc1 [SILAFLUOFEN]
EC50 [2]: 0.6 ng/mL (≈ 0.00147 µM)
EC50 [3]: 1.2 ng/mL (≈ 0.00294 µM)

CCc1ccc(C(=O)NN(C(=O)c2cc(C)cc(C)c2)C(C)(C)C)cc1 [TEBUFENOZIDE]
EC50 [2]: > 830 ng/mL
EC50 [3]: 3800 ng/mL (≈ 10.8 µM)

N#C/N=C1\SCCN1Cc1ccc(Cl)nc1 [THIACLOPRID]
EC50 [2]: 5.27 ng/mL (≈ 0.0209 µM)
EC50 [3]: 22520 ng/mL (≈ 89.1 µM)

CN(C)C1CSSSC1.O=C(O)C(=O)O [THIOCYCLAM HYDROGEN OXALATE]
logP [1]: -0.07
EC50 [2]: 5.76 ng/mL
EC50 [4]: 2010 ng/mL

CS/C(C)=N\OC(=O)N(C)SN(C)C(=O)O/N=C(\C)SC [THIODICARB]
logP [1]: 1.62
EC50 [2]: 145 ng/mL (≈ 0.409 µM)
EC50 [3]: 27 ng/mL (≈ 0.0762 µM)

COP(=O)(OC)C(O)C(Cl)(Cl)Cl (stereo unspecified) [TRICHLORFON]
EC50 [2]: 2.02 ng/mL (≈ 0.00785 µM)
EC50 [3]: 0.36 ng/mL (≈ 0.0014 µM)
